This assay deals with P388 leukemia ip, CD2F1 mice, survival T/C. The assay is described as follows: NCI In Vivo Anticancer Drug Screen. Data for tumor model P388 Leukemia (intraperitoneal) in CD2F1 (CDF1) mice. To be noted: endpoint: median survival time, higher = longer survival. In short, it runs like this: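 Mice carrying the transplanted tumor received test compound or vehicle. Survival was recorded in each group, and the value is the treated-group measurement divided by that of the vehicle-treated control group.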

Setting [1] is: dose: 25.0 mg/kg/injection, schedule: Q01DX009 (ip), vehicle: saline with Tween-80.
Setting [2] is: dose: 50.0 mg/kg/injection, schedule: Q01DX005 (ip), vehicle: saline with Tween-80.
[3] abbreviates: dose: 100.0 mg/kg/injection, schedule: Q01DX005 (ip), vehicle: saline with Tween-80.
The mark [4] stands for this setting: dose: 200.0 mg/kg/injection, schedule: Q01DX005 (ip), vehicle: saline with Tween-80.
The mark [5] stands for this setting: dose: 100.0 mg/kg/injection, schedule: Q01DX001 (ip), vehicle: Klucel (hydroxypropylcellulose) (HPC).
Setting [6] is: dose: 200.0 mg/kg/injection, schedule: Q01DX001 (ip), vehicle: Klucel (hydroxypropylcellulose) (HPC).

Values joined by “and” are separate entries in the source; they are usually repeats but may differ in a detail not shown here. Equal entries are not always repeated. Toxic doses and inconclusive results are not listed.

Consider `C=C(C[P+](c1ccccc1)(c1ccccc1)c1ccccc1)C(=O)OCC`, for which the T/C is 111 % of control (dose: 3.12 mg/kg/injection, schedule: Q01DX001 (ip), vehicle: saline); 109 % of control (dose: 6.25 mg/kg/injection, schedule: Q01DX001 (ip), vehicle: saline); 113 % of control (dose: 12.5 mg/kg/injection, schedule: Q01DX001 (ip), vehicle: saline); 117 % of control (dose: 12.5 mg/kg/injection, schedule: Q01DX001 (ip), vehicle: suspension in saline).

Consider `Cc1cc2sccc2cn1`, for which the T/C was 100 % of control under setting [1] and 100 % of control (dose: 50.0 mg/kg/injection, schedule: Q01DX009 (ip), vehicle: saline with Tween-80).

Consider `CN(C)C(=C1C=CC=C/C1=N/S(=O)(=O)c1ccccc1)N(C)C`, for which the T/C reads like this: (dose: 100.0 mg/kg/injection, schedule: Q04DX003 (ip), vehicle: saline) 103 % of control; (dose: 200.0 mg/kg/injection, schedule: Q04DX003 (ip), vehicle: saline) 108 % of control; (dose: 400.0 mg/kg/injection, schedule: Q04DX003 (ip), vehicle: saline) 105 % of control.

Take `O=C1C(=O)C(Cl)=C(Cl)C(Cl)=C1Cl`: the T/C by setting is: (dose: 6.25 mg/kg/injection, schedule: Q01DX009 (ip), vehicle: saline with Tween-80) 100 % of control and 95 % of control; (dose: 12.5 mg/kg/injection, schedule: Q01DX009 (ip), vehicle: saline with Tween-80) 93 % of control; under setting [1], 100 % of control and 98 % of control.

As for `CCCCCCCCNC1c2ccccc2CCC1O` (stereo unspecified), the T/C was 97 % of control (dose: 25.0 mg/kg/injection, schedule: Q01DX005 (ip), vehicle: Klucel (hydroxypropylcellulose) (HPC)); 94 % of control (dose: 50.0 mg/kg/injection, schedule: Q01DX005 (ip), vehicle: Klucel (hydroxypropylcellulose) (HPC)); 97 % of control (dose: 100.0 mg/kg/injection, schedule: Q01DX005 (ip), vehicle: Klucel (hydroxypropylcellulose) (HPC)).

Turning to `CC(=O)[O][Hg][c]1c(N)c(Cl)cc(C)c1F`, the T/C runs as follows: (dose: 3.12 mg/kg/injection, schedule: Q01DX009 (ip), vehicle: Klucel (hydroxypropylcellulose) (HPC)) 91 % of control; (dose: 6.25 mg/kg/injection, schedule: Q01DX009 (ip), vehicle: Klucel (hydroxypropylcellulose) (HPC)) 86 % of control.

For the molecule `CCOC(C)(OCC)N(C)C` (tested in a mixture with another compound), the T/C by setting is: (dose: 35.5 mg/kg/injection, schedule: Q01DX005 (ip), vehicle: saline with Tween-80) 101 % of control; (dose: 71.0 mg/kg/injection, schedule: Q01DX005 (ip), vehicle: saline with Tween-80) 102 % of control; (dose: 142.0 mg/kg/injection, schedule: Q01DX005 (ip), vehicle: saline with Tween-80) 118 % of control.

Take `C1CC[N-]CC1.C1CC[N-]CC1.C1CC[N-]CC1.C1CC[N-]CC1.N#C[S-].N#C[S-].[Ni]`: the T/C reads like this: (dose: 5.0 mg/kg/injection, schedule: Q04DX003 (ip), vehicle: saline with Tween-80) 100 % of control; (dose: 10.0 mg/kg/injection, schedule: Q04DX003 (ip), vehicle: saline with Tween-80) 100 % of control.

Regarding `C=C1C(=C)C2OC1c1cc3c(cc12)C(=O)c1ccccc1C3=O`, the T/C runs as follows: under setting [2], 90 % of control; under setting [3], 109 % of control; under setting [4], 114 % of control.

On to `Nc1ncnc2nc(-c3ccc(OCc4ccccc4)cc3)[nH]c12`, for which the T/C is 101 % of control (dose: 100.0 mg/kg/injection, schedule: Q01DX001 (ip), vehicle: saline); 94 % of control (dose: 200.0 mg/kg/injection, schedule: Q01DX001 (ip), vehicle: saline); 98 % of control (dose: 400.0 mg/kg/injection, schedule: Q01DX001 (ip), vehicle: saline).

For `C=CC1(OC)CC1CO` (stereo unspecified), the T/C (dose: 25.0 mg/kg/injection, schedule: Q01DX001 (ip), vehicle: Klucel (hydroxypropylcellulose) (HPC)) is 99 % of control; the T/C (dose: 50.0 mg/kg/injection, schedule: Q01DX001 (ip), vehicle: Klucel (hydroxypropylcellulose) (HPC)) is 102 % of control; the T/C under setting [5] is 91 % of control and 93 % of control; the T/C under setting [6] is 95 % of control.

`COC(=O)C1(CC(=O)C(C)(C)C)NC(=S)NC(=O)C1C#N` (stereo unspecified): the T/C by setting is: (dose: 60.0 mg/kg/injection, schedule: Q01DX005 (ip), vehicle: saline) 107 % of control; (dose: 120.0 mg/kg/injection, schedule: Q01DX005 (ip), vehicle: saline) 101 % of control; (dose: 240.0 mg/kg/injection, schedule: Q01DX005 (ip), vehicle: saline) 97 % of control.

In the case of `CC(C)CC(=O)OCC1=CCN2CC[C@@H](O)[C@@H]12`, the T/C is, setting by setting: (dose: 15.0 mg/kg/injection, schedule: Q01DX009 (ip), vehicle: saline + alcohol) 105 % of control; (dose: 30.0 mg/kg/injection, schedule: Q01DX009 (ip), vehicle: saline + alcohol) 109 % of control; (dose: 60.0 mg/kg/injection, schedule: Q01DX009 (ip), vehicle: saline + alcohol) 105 % of control; (dose: 120.0 mg/kg/injection, schedule: Q01DX009 (ip), vehicle: saline + alcohol) 108 % of control; (dose: 240.0 mg/kg/injection, schedule: Q01DX009 (ip), vehicle: saline + alcohol) 108 % of control; (dose: 480.0 mg/kg/injection, schedule: Q01DX009 (ip), vehicle: saline + alcohol) 114 % of control.

Take `OCC1CCCC1CO` (stereo unspecified): the T/C reads like this: under setting [2], 106 % of control and 101 % of control; under setting [3], 105 % of control and 101 % of control; under setting [4], 100 % of control and 114 % of control.

Regarding `O=C1C(=O)N(c2ccc([N+](=O)[O-])cc2)C(=O)N1c1ccc([N+](=O)[O-])cc1`, the T/C is 112 % of control (dose: 60.0 mg/kg/injection, schedule: Q01DX005 (ip), vehicle: saline with Tween-80); 95 % of control (dose: 120.0 mg/kg/injection, schedule: Q01DX005 (ip), vehicle: saline with Tween-80); 95 % of control (dose: 240.0 mg/kg/injection, schedule: Q01DX005 (ip), vehicle: saline with Tween-80).

`CC(=O)OCCn1c([N+](=O)[O-])cnc1/C=[N+](/C)[O-]`: the T/C is, setting by setting: (dose: 50.0 mg/kg/injection, schedule: Q01DX009 (ip), vehicle: saline) 101 % of control; (dose: 100.0 mg/kg/injection, schedule: Q01DX009 (ip), vehicle: saline) 102 % of control; (dose: 200.0 mg/kg/injection, schedule: Q01DX009 (ip), vehicle: saline) 103 % of control.

`CN=C(N)NN=C(c1ccc(I)cc1)c1ccc(I)cc1`: the T/C was 104 % of control (dose: 25.0 mg/kg/injection, schedule: Q04DX002 (ip), vehicle: saline with Tween-80); 106 % of control (dose: 50.0 mg/kg/injection, schedule: Q04DX002 (ip), vehicle: saline with Tween-80); 104 % of control (dose: 100.0 mg/kg/injection, schedule: Q04DX002 (ip), vehicle: saline with Tween-80).

Consider `Cc1nc(-c2ccccc2)nc2c1nc(Cc1ccccc1)n2Nc1ccccc1`, for which the T/C is 87 % of control under setting [5]; 91 % of control under setting [6]; 87 % of control (dose: 400.0 mg/kg/injection, schedule: Q01DX001 (ip), vehicle: Klucel (hydroxypropylcellulose) (HPC)).

As to `O=C1N=CC2(N=N2)C(=O)N1`, the T/C was 161 % of control (dose: 3.75 mg/kg/injection, schedule: Q01DX005 (ip), vehicle: saline with Tween-80); 155 % of control and 168 % of control (dose: 7.5 mg/kg/injection, schedule: Q01DX005 (ip), vehicle: saline with Tween-80); 178 % of control and 190 % of control (dose: 15.0 mg/kg/injection, schedule: Q01DX005 (ip), vehicle: saline with Tween-80).

Regarding `O=C1Nc2ccccc2S/C1=C/c1ccccc1`, the T/C runs as follows: (dose: 50.0 mg/kg/injection, schedule: Q01DX009 (ip), vehicle: gum acacia) 109 % of control; (dose: 100.0 mg/kg/injection, schedule: Q01DX009 (ip), vehicle: gum acacia) 113 % of control; (dose: 200.0 mg/kg/injection, schedule: Q01DX009 (ip), vehicle: gum acacia) 97 % of control.

As to `COc1c(Cl)ncnc1Cl`, the T/C is 100 % of control (dose: 25.0 mg/kg/injection, schedule: Q01DX009 (ip), vehicle: Klucel (hydroxypropylcellulose) (HPC)); 103 % of control (dose: 50.0 mg/kg/injection, schedule: Q01DX009 (ip), vehicle: Klucel (hydroxypropylcellulose) (HPC)); 110 % of control (dose: 100.0 mg/kg/injection, schedule: Q01DX009 (ip), vehicle: Klucel (hydroxypropylcellulose) (HPC)); 98 % of control (dose: 200.0 mg/kg/injection, schedule: Q01DX009 (ip), vehicle: Klucel (hydroxypropylcellulose) (HPC)).

These data come from PubChem BioAssay AID330 (DTP/NCI, 2004).
